We go through three molecules from ChEMBL document CHEMBL3525930 (Drug Metab Dispos, 2012).

What is called IC50 is the midpoint of a concentration-inhibition curve. Broadly, the Cmax is the highest concentration seen after dosing. What is called EC50 is the concentration at which the effect is half-maximal.

One data set deals with MRP1. The data set can be described thus: Induction of MRP1 mRNA expression in human hepatocytes at 10 uM after 72 hrs by RT-PCR analysis relative to vehicle-treated control. Type of data set: cell-based, Hepatocyte. The conditions noted are these: read-out: FC.
Another data set has as its system CYP2E1. The data set can be described thus: Induction of CYP2E1 mRNA expression in human hepatocytes at 10 uM after 72 hrs by RT-PCR analysis relative to vehicle-treated control. Type of data set: ADME, cell-based, Hepatocyte. To be noted: read-out: FC.
A further data set concerns UGT1A9. The data set can be described thus: Induction of UGT1A9 mRNA expression in human hepatocytes at 10 uM after 72 hrs by RT-PCR analysis relative to vehicle-treated control. To be noted: read-out: FC. Type of data set: ADME, cell-based, Hepatocyte.
The next data set relates to CYP2C8. The data set is described as follows: Induction of CYP2C8 mRNA expression in human hepatocytes at 10 uM after 72 hrs by RT-PCR analysis relative to vehicle-treated control. Type of data set: ADME, cell-based, Hepatocyte. To be noted: read-out: FC.
For data set [1], the target named is CYP2C9 (Homo sapiens, UniProt P11712). The data set is described as follows: Induction of CYP2C9 in human hepatocytes at 10 uM after 72 hrs relative to vehicle-treated control. Type of data set: ADME, cell-based, Hepatocyte. To be noted: read-out: FC.
In data set [2] the test system is CYP2C9. The data set can be described thus: Induction of CYP2C9 mRNA expression in human hepatocytes at 10 uM after 72 hrs by RT-PCR analysis relative to vehicle-treated control. Type of data set: ADME, cell-based, Hepatocyte. To be noted: read-out: FC.
Data set [3] concerns the target T1, Cytochrome P450 2B6 (Homo sapiens, UniProt P20813).
T1 sequence (P20813 whole entry): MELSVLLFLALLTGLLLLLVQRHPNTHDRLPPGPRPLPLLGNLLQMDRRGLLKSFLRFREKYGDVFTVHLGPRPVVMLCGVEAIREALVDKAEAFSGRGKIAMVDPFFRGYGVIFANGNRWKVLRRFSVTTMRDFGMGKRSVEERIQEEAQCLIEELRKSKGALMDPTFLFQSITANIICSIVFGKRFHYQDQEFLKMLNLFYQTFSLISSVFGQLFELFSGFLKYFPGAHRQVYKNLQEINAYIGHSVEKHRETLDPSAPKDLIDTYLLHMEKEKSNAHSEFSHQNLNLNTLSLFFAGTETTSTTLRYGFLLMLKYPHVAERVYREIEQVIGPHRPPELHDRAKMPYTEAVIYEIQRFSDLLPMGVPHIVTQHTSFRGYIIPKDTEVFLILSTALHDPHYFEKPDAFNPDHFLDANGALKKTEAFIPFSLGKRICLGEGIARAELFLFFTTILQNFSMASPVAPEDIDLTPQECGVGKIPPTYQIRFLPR
The data set is described as follows: Inhibition of recombinant CYP2B6 (unknown origin) incubated for 3 mins prior to NADPH addition measured after 10 mins by LC-MS analysis. Type of data set: ADME.

Another data set deals with CYP2A6. The data set is described as follows: Induction of CYP2A6 mRNA expression in human hepatocytes at 10 uM after 72 hrs by RT-PCR analysis relative to vehicle-treated control. Type of data set: ADME, cell-based, Hepatocyte. To be noted: read-out: FC.
For data set [4], the system named is Hepatocyte. The data set can be described thus: Cytotoxicity against human hepatocytes assessed as cell viability relative to control. Type of data set: cell-based.
Another data set deals with CYP3A5. The data set is described as follows: Induction of CYP3A5 mRNA expression in human hepatocytes at 10 uM after 72 hrs by RT-PCR analysis relative to vehicle-treated control.
Another data set concerns MDR1. The data set is described as follows: Induction of MDR1 mRNA expression in human hepatocytes at 10 uM after 72 hrs by RT-PCR analysis relative to vehicle-treated control. Type of data set: ADME, cell-based, Hepatocyte. To be noted: read-out: FC.
A short description of data set [5]: Chemical stability of the compound in human hepatocyte culture medium assessed as compound remaining at 1 to 50 uM after 24 hrs. Type of data set: physicochemical. The conditions noted are these: read-out: Stability.
In data set [6] the target is CYP2B6 (Homo sapiens, UniProt P20813). The data set can be described thus: (§1) Induction of CYP2B6 in human hepatocytes at 10 uM after 72 hrs relative to vehicle-treated control. Type of data set: ADME, cell-based, Hepatocyte. The conditions noted are these: read-out: FC.
Data set [7] has as its target T1, Cytochrome P450 2B6. Described as §1. Type of data set: ADME, cell-based, Hepatocyte. To be noted: 72 h, 10 µM.
The test system of another data set is CYP2C19. The data set can be described thus: Induction of CYP2C19 mRNA expression in human hepatocytes at 10 uM after 72 hrs by RT-PCR analysis relative to vehicle-treated control. Type of data set: ADME, cell-based, Hepatocyte. To be noted: read-out: FC.
For data set [8], the system named is CYP3A4. The data set can be described thus: (§2) Induction of CYP3A4 mRNA expression in human hepatocytes at 10 uM after 72 hrs by RT-PCR analysis relative to vehicle-treated control.
Data set [9] has as its system Hepatocyte. The data set is described as §2. To be noted: 72 h, 10 µM.
Data set [10] has as its target T2, Cytochrome P450 3A4 (Homo sapiens, UniProt P08684). The data set can be described thus: Inhibition of recombinant CYP3A4 (unknown origin) incubated for 3 mins prior to NADPH addition measured after 3 mins by LC-MS analysis. Type of data set: ADME.
The test system of another data set is MRP2. The data set can be described thus: Induction of MRP2 mRNA expression in human hepatocytes at 10 uM after 72 hrs by RT-PCR analysis relative to vehicle-treated control. Type of data set: cell-based, Hepatocyte. To be noted: read-out: FC.
The test system of another data set is CYP2D6. The data set is described as follows: Induction of CYP2D6 mRNA expression in human hepatocytes at 10 uM after 72 hrs by RT-PCR analysis relative to vehicle-treated control. Type of data set: ADME, cell-based, Hepatocyte. The conditions noted are these: read-out: FC.
Data set [11] has as its target T2, Cytochrome P450 3A4. The data set can be described thus: Inhibition of CYP3A4 in human liver microsomes incubated for 3 mins prior to NADPH addition measured after 3 mins by LC-MS analysis. Type of data set: ADME.
The test system of another data set is UGT2B7. The data set is described as follows: Induction of UGT2B7 mRNA expression in human hepatocytes at 10 uM after 72 hrs by RT-PCR analysis relative to vehicle-treated control. To be noted: read-out: FC. Type of data set: ADME, cell-based, Hepatocyte.
For the next data set, the system named is CYP1A2. The data set is described as follows: Induction of CYP1A2 mRNA expression in human hepatocytes at 10 uM after 72 hrs by RT-PCR analysis relative to vehicle-treated control. Type of data set: ADME, cell-based, Hepatocyte. To be noted: read-out: FC.
Data set [12] addresses CYP3A4 (Homo sapiens, UniProt P08684). The data set is described as follows: (§3) Induction of CYP3A4 in human hepatocytes at 10 uM after 72 hrs relative to vehicle-treated control.
Data set [13] concerns the target T2, Cytochrome P450 3A4. The data set is described as §3. To be noted: 72 h, 10 µM.
Data set [14] concerns CYP2B6. The data set can be described thus: (§4) Induction of CYP2B6 mRNA expression in human hepatocytes at 10 uM after 72 hrs by RT-PCR analysis relative to vehicle-treated control. Type of data set: ADME, cell-based, Hepatocyte. To be noted: read-out: FC.
Data set [15] concerns Hepatocyte. The description is as §4. Type of data set: ADME, cell-based. To be noted: 72 h, 10 µM.
In data set [16] the target is T1, Cytochrome P450 2B6. The data set is described as follows: Inhibition of CYP2B6 in human liver microsomes incubated for 3 mins prior to NADPH addition measured after 10 mins by LC-MS analysis. Type of data set: ADME.
Another data set is filed under the species Homo sapiens. The data set can be described thus: Unbound Cmax in human. Type of data set: ADME, organism-based. The conditions noted are these: in vivo.
Data set [17] can be described thus: Total Cmax in human. Type of data set: ADME, organism-based. The conditions noted are these: in vivo.
The nature of data set [18]: Chemical stability of the compound in PBS buffer assessed as compound remaining at pH 7.4 after 10 mins. Type of data set: physicochemical. To be noted: read-out: Stability.
Data set [19] concerns the target Nuclear receptor subfamily 1 group I member 2 (Homo sapiens, UniProt O75469). The data set can be described thus: Activation of human PXR expressed in human LS174T cells. Type of data set: ADME, cell-based.

T2 sequence (P08684 whole entry): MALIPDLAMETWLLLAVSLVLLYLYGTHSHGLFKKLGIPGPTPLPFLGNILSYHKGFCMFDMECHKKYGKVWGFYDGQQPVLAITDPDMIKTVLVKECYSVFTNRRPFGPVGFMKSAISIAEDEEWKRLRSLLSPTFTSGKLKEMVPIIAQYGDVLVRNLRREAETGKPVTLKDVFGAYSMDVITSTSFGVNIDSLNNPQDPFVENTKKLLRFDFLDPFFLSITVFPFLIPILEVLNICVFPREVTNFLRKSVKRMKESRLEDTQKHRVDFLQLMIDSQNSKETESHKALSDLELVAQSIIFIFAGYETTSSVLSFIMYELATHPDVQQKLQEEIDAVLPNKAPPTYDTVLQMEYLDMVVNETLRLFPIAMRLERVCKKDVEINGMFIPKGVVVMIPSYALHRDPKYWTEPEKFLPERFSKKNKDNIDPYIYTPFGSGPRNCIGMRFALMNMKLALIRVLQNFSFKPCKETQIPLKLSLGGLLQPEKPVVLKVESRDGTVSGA
Sequence of CYP2C9 (Homo sapiens, UniProt P11712) (P11712 whole entry): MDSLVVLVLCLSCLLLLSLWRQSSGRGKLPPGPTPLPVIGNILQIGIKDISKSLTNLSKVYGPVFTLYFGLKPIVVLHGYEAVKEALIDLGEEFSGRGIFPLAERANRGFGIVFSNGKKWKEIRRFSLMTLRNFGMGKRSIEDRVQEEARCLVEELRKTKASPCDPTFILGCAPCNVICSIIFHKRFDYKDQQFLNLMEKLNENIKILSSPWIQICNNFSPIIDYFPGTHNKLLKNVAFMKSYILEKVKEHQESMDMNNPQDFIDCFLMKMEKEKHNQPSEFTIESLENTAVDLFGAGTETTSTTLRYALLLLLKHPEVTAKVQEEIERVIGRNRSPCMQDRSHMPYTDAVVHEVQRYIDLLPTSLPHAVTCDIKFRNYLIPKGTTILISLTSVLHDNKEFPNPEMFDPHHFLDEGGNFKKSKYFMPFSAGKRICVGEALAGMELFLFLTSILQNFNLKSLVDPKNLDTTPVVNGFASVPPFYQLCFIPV
Sequence of CYP3A4 (Homo sapiens, UniProt P08684) (P08684 whole entry): as the sequence (P08684 whole entry) above
Sequence of Nuclear receptor subfamily 1 group I member 2 (O75469 whole entry): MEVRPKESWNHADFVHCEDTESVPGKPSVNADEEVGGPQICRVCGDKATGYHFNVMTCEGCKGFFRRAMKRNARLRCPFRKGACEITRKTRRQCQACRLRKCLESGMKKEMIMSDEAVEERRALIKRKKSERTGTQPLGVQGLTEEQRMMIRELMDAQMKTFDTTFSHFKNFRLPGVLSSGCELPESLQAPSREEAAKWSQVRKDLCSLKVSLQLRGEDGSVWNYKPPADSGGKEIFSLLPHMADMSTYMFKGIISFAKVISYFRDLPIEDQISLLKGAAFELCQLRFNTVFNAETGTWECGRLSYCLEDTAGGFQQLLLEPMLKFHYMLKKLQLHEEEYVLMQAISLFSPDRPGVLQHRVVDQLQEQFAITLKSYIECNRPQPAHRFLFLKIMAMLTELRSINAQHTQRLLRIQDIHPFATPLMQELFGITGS

Consider `C[C@H]1[C@@H](O)O[C@@H]2O[C@@]3(C)CC[C@H]4[C@H](C)CC[C@@H]1[C@@]24OO3` [ARTENIMOL], for which the fold induction at 72 h, 10 µM in the data set on MRP1 was determined as 0.8; in the data set with CYP2E1 it was 0.6; with UGT1A9 it was 1.4; with CYP2C8 it was 0.8; on CYP2C9 [1] it was 1.2; with CYP2C9 [2], 1. The fold induction at 72 h, 10 µM in the data set on CYP2A6 amounted to 2.2; in the data set with CYP3A5, 1; in the data set with MDR1 it was 1; on CYP2B6 [6], 2.9; in the data set on CYP2C19 it was 1.3; in the data set on CYP3A4 [8], 3.4. Further, the fold induction at 72 h, 10 µM in the data set with MRP2 was found to be 0.8; in the data set with CYP2D6, 0.7; with UGT2B7 it was 0.7; with CYP1A2, 1.1; at CYP3A4 [12], 2.1; with CYP2B6 [14], 3.5. For the same molecule, the IC50 at Cytochrome P450 2B6 [3], at Cytochrome P450 3A4 [10], on Cytochrome P450 3A4 [11] and against Cytochrome P450 2B6 [16] was more than 125 µM each time. The Activity in the data set with Hepatocyte [4] was determined as 50 µM; on Cytochrome P450 2B6 [7] it was 11.3%; with Hepatocyte [9], 7.7%; on Cytochrome P450 3A4 [13] it was 5.2%; in the data set on Hepatocyte [15], 13.9%. Further, the remaining at 24 h, up to 50 µM in data set [5] is 8%.
On to `C[C@@H]1CC[C@H]2[C@@H](C)C(=O)O[C@@H]3O[C@@]4(C)CC[C@@H]1[C@]32OO4` [ARTEMISININ], for which the Activity with Hepatocyte [4] is less than 50 µM. For the same molecule, the fCmax in the data set filed under Homo sapiens came out at 0.58 µM. In [17], this molecule displayed a Cmax of 1600 nM. In addition, the remaining at 10 min in [18] is less than 15%. Further, in [5], the remaining at 24 h, up to 50 µM worked out at 38%. In data set [19], this molecule had a half-maximal effective concentration (EC50) of 30 µM.
For `CO[C@H]1/C=C/O[C@@]2(C)Oc3c(C)c(O)c4c(O)c(c(/C=N/N5CCN(C)CC5)c(O)c4c3C2=O)NC(=O)/C(C)=C\C=C\[C@H](C)[C@H](O)[C@@H](C)[C@@H](O)[C@@H](C)[C@H](OC(C)=O)[C@@H]1C` [RIFAMPIN], in the data set on Hepatocyte [4], the Activity is less than 50 µM.
